# Assay results taken from US20180074077A1, “A METHOD FOR MEASURING THE PROTEASE ACTIVITY OF FACTOR D OF THE ALTERNATIVE COMPLEMENT PATHWAY” (priority 2015, published 2018).
# How the values were obtained:
# Factor D = target: T1, Factor D (Homo sapiens, UniProt P00746); experiment: BLI biosensor assay of Factor D cleavage of Factor B, anti-Bb antibody binding; assay type: biochemical
# T1 construct: purchased COMPTECH (Tyler Tex.)
# Description: All measurements were recorded on an OCTET® RED System set to the advanced quantitation mode. The biosensors were SA-Streptavidin DIP AND READ™ configured to a 96-well microplate format (FORTEBIO). All loading volumes were 200 μl.
# Eight streptavidin-coated biosensors were incubated with bio-C3b (10 μg/ml), and Factor B (0.6 μM) in Kinetics Buffer with 1 mM NiCl2 for 6 minutes.
# To form bio-C3b/Bb, each biosensor was loaded with a mixture of BioC3b (10 μg/mL), factor B (600 nM) and Ni^2+ (1 mM) in Kinetics Buffer. […] The incubation time was 2 minutes.
# The presence of Bb on the biosensor was detected by loading the biosensors with 55 nM of an anti-Bb antibody (Quidel, A227) and 55 nM Goat anti-mouse secondary antibody in Kinetics Buffer. The incubation time was 2 minutes.
# From time 0 to about 360 seconds (˜6 minutes), the 269 kDa bio-C3b/Factor B complex formed on the streptavidin coated biosensor. […] From about 360 to about 480 seconds (˜2 minutes), Factor D cleaved Factor B into fragments Ba and Bb. […] The binding of the 300 kDa primary and secondary antibody complex to the Bb fragment was recorded as a positive wavelength shift from about 600 to 720 seconds (˜2 minutes).
# C5 convertase = C5 convertase activity on bio-C3b spheres, C5a measured with ECL assay; assay type: biochemical; settings: for ECL signal (amount of C5a produced by C5 convertase): C5 100 nM, 60 min
# Description: The bio-C3b binding to streptavidin was performed in a 2.0 ml micro-centrifuge tube. Two hundred and forty μg of SPHEROTECH beads, 0.3 mm diameter. Streptavidin coated spheres were first washed by centrifugation with 300 μL of 10 mM Tris, pH 8, and then resuspended in 200 μL of 10 mM Tris, pH 8. The spheres were incubated with bio-C3b or C3b at a concentration of 320 nM. Spheres were suspended by gentle shaking at 1350 RPM for 20 minutes at room temperature, and collected by centrifugation at 16 RCF for 10 minutes. The residual supernatant was removed and the beads were then washed to remove residual unbound bio-C3b.
# C5 convertase was formed on the spheres by incubating the bio-C3b spheres with a Convertase Solution that included components of the AP, a divalent cation and buffer. The Convertase Solution consisted of Factor D, (10 nM), Factor B (400 nM), and NiCl2 (200 μM) in 10 mM Tris, pH 8.0. The spheres were suspended by gentle shaking at 1350 RPM for 20 minutes at 37° C. The spheres were centrifuged at 16×g (RCF) for 10 minutes, the supernatant is removed, and the spheres are resuspended in 1.2 ml of 10 mM Tris pH 8, 1 mM EDTA to a final concentration of 200 μg/ml.
# Formation of C5a was accomplished by incubating C5, and the spheres in a Reaction Solution that included a divalent cation. The Reaction Solution was prepared by transferring to a microplate well: (i) 2 μg of spheres with C5 convertase in 10 μl of the Convertase Solution; (ii) 20 μL of a 500 μM NiCl2 solution; and (iii) 20 μL of a 250 nM solution of C5 (5 pmoles). […] Following the incubation, the reaction was stopped by adding 10 μL of a 500 mM EDTA in 10 mM Tris, pH=8.0; (Total Volume=60 μl).
# The amount of C5a in the Reaction Solution was measured with an Elisa-like assay, similar to an ELISA. The neo-epitope anti-C5a antibody, BNJ383, captured soluble C5a, binding it to a well in a microplate. BNJN383 has a high affinity for C5a but a low affinity for C5. The detection reagent was a mouse anti-C5a antibody that binds the C5a captured on the plate, and a SULFO-TAG™ modified anti-mouse secondary antibody that bound the mouse antibody, and generated an ECL signal.
# To wells of a high binding 96-well microplate (MSD Catalog No. L15XB-3) was added BNJ383 (0.3 pmoles,) 2 μg/mL in 25 μL of a carbonate-bicarbonate buffer at pH 9.4. The microplate was sealed and incubated at 37′C for 60 minutes. […]
# The wells were sealed with a foil seal and incubated in the dark for 30 minutes. […] One hundred and fifty μL of 2×MSD Read Buffer containing tripropylamine as an electron carrier was added to the wells using a negative pipetting technique. The microplate was read on an MSD imager to measure the ECL signal generated by the SULFO-TAG™ affixed to the goat secondary antibody. […]
# T1 sequence (P00746 26-253): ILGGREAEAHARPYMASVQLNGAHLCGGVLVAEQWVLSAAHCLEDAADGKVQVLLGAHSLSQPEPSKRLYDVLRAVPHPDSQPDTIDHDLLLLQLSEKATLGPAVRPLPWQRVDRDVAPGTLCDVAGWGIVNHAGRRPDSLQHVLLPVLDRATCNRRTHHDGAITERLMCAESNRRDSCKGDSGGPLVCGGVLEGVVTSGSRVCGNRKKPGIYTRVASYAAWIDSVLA
Compound,Effect on Factor D activity (in words) (Factor D; DCIC 23 μM and 35 μM),"Inhibition of Factor D (in words) (Factor D; DCIC 178 μM, 267 μM and 400 μM)",Effect on convertase activity (in words) (C5 convertase; OmCI 50 nM),ECL signal (amount of C5a produced by C5 convertase) (C5 convertase; OmCI 50 nM),drop of ECL signal (C5 convertase; OmCI 100 nM) [fold],ECL signal (amount of C5a produced by C5 convertase) (C5 convertase; OmCI 100 nM)
"O=c1oc(Cl)c(Cl)c2ccccc12 [DCIC, 3,4-Dichloroisocoumarin]",minimal effect,maximally inhibited,,,,
"OmCI: tick saliva complement inhibitor, a C5 binding protein",,,essentially no effect,"40,000",8,5000
